Values joined by “and” are separate entries in the source; they are usually repeats but may differ in a detail not shown here. Equal entries are not always repeated.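 These data come from cells grown in 96-well plates and exposed to compound for 48 hours at five concentrations. The concentration for 50% growth inhibition is given as GI50. Definition used: TGI = concentration required for complete inhibition of growth.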 Where a SMILES comes first, the peptide text is derived from it. [ ]: non-standard residue; d: D form. The star is where a group is joined. ξ: configuration not given here. ξD = NC(CC(=O)O)C(=O)O; Boc = CC(C)(C)OC(=O)*; Aib = CC(C)(N)C(=O)O; OBn = c1ccc(CO*)cc1
Tests used:
Test in all cases: DTP human tumour cell line panel, 48 h
[1] = tested on: 786-0 renal
[2] = tested on: HCT-116 colon
[3] = tested on: HT29 colon
[4] = tested on: K-562 leukemia
[5] = tested on: LOX IMVI melanoma
[6] = tested on: DLD-1 colon
[7] = tested on: DMS 114 small cell lung
[8] = tested on: DMS 273 small cell lung
[9] = tested on: KM20L2 colon
[10] = tested on: M19-MEL melanoma
[11] = tested on: SNB-78 CNS
[12] = tested on: LXFL 529 NSCLC
[13] = tested on: XF 498 CNS

Structure (SMILES)	TGI [1] [µM]	TGI [2]	TGI [3] [µM]	TGI [4] [µM]	TGI [5] [µM]	TGI [6] [µM]	GI50 [7] [µM]	TGI [7] [µM]	TGI [8] [µM]	TGI [9] [µM]	TGI [10] [µM]	TGI [11] [µM]	TGI [12] [µM]	TGI [13] [µM]
NC(=O)N/N=C\CC(O)(C(F)(F)Cl)C(F)(F)Cl	> 10	> 10 µM	> 10	> 10	> 10									
COc1cc2c(c(OC)c1OC)-c1ccc(SC)c(=O)cc1[C@@H](NC(=O)c1cccc([N+](=O)[O-])c1)CC2	11.8	0.0439 µM and 0.117 µM	0.0708	> 100		> 100	0.0165	0.0365	70.2	0.0358	> 100	> 100		
CC(C)(C)OC(=O)NC(CC(=O)OCc1ccccc1)C(=O)NC(C)(C)C(N)=O (stereo unspecified) (Boc-[ξD](OBn)-[Aib]-NH2)	> 100	> 100 µM	> 100	> 100	> 100									
NC(=O)c1ncn(C2C=CC(CP(=O)(O)O)C2)c1N (stereo unspecified)	> 100	> 100 µM	> 100	> 100	> 100									
CC(=O)Nc1ccc(S(=O)(=O)c2nnc(NC(C)=O)s2)cc1	> 100	> 100 µM	> 100	> 100	> 100									
O=c1[nH]c2nc3ccccc3c(=O)n2/c1=C/c1ccccc1	96.6	> 100 µM	39.1		> 100									
O=S(Cc1ccccc1)c1ccccc1Cn1cccc1 (stereo unspecified)	> 100	> 100 µM	> 100	> 100	> 100									
NC(=O)N/N=C(\CC1OC(=O)c2ccccc21)c1ccc([N+](=O)[O-])cc1 (stereo unspecified)	32	74.2 µM	> 100		33.9	47.9			76.1	96.2	68.1		> 100	> 100
O=C(C[C@@H]1CCCN2CCCC[C@H]12)N1c2ccccc2Sc2ccc(Cl)cc21	23.1	29.5 µM	22.8	35.2	27.3									
CCN(CC)CCCNc1ccc([N+](=O)[O-])c2nc3ccccc3c(N)c12	1.72	1.48 µM	1.81	2.35	2.14									
CSc1nc(-c2ccccc2)[nH]c(=O)n1	> 100	> 100 µM	> 100											
CCC1C(NC(=O)OC)C(=O)N1[C@@H](C)c1ccccc1 (stereo partly specified)	> 100	> 100 µM	> 100	> 100	> 100									
CC(=O)C1C(=O)C(=O)N(c2ccc([N+](=O)[O-])cc2[N+](=O)[O-])C1=O (stereo unspecified)	> 100	> 100 µM	> 100		> 100									
COc1ccc2c(=O)c3ccoc3[nH]c2c1	> 100	> 100 µM	> 100	> 100	> 100									
CCOC(=O)C(=[N+]=[N-])C(=O)CSC#N	> 100	> 100 µM	> 100		61.9									

Source: PubChem BioAssay (NCI)
